From EP4583874B1, “MULTITARGET NUCLEAR RECEPTOR LIGANDS BASED ON 2-(4-(QUINOLIN-2-YLOXY)PHENOXY)PROPANOIC ACID AND 2-(4-(QUINOXALIN-2-YLOXY)PHENOXY)PROPANOIC ACID FOR THE TREATMENT OF METABOLIC AND LIVER DISEASES” (CHARLES UNIVERSITY, FACULTY OF PHARMACY IN HRADEC KRALOVE, priority 2022, dated 2024)

Columns and labels:
C57BL/6J mice = assay: Pilot study in mice, liver mRNA expression by RT-qPCR; format: in vivo; details: 3x 30 mg/kg p.o. gavage, liver 24 h after last application, vs vehicle
Method: Compounds 35 and 37 have been applied three times after 24 h (3x 30 mg/kg) via p.o. gavage to wild-type C57BL/6J mice. After 24 h from the last application, mice were sacrificed, and live samples collected on dry ice for total RNA isolation. RT-qPCR experiments have been performed with TaqMan probes and expression has been quantified using a reference gene (beta-actin and Gapdh) and delta-delta method. Data represents fold up or downregulation in mRNA expression for tested genes related to the expression in vehicle-treated control animals. * - statistically significant (p<0.05) up- or down- regulation in animals treated with tested compounds (n=4).
In the pilot study, compounds of the invention 37 and 35 were applied by per os probe (gavage) to male mice of age 15 weeks (n=4 per group) three times (3 x 30 mg/kg b.w.) in 1%PEG300/methylcellulose solution (compounds of EXAMPLE 37or 35). Livers were sampled 24 hours after application into liquid nitrogen for total RNA insolation and for qRT-PCR analysis (Quantstudio 7 HT Fast Real-Time PCR System).
Expressions of NR target genes mRNAs in livers of mice or in 3D cultured (spheroids) primary human hepatocytes have been performed using TaqMan probes-based RT-qPCR after isolation of total RNA by Trizol® (ThermoFischer Scientific) reagent and reverse transcription synthesis of cDNA in Quant Studio cycler. Real-time qPCR TaqMan probes have been purchased prom ThermoFisher scientific (Cat. No. 4351372 and 433118). Delta-delta method and Gapdh or TATA-box binding protein (TBP) housekeeping genes were used for relative quantification. Data are expressed as fold up-/down-regulation compared to vehicle-treated samples/mice.

[1] = tested on: C57BL/6J mice fed with high-fat diet; assay: Proof-of-concept study in mice fed with high-fat diet, liver mRNA expression by RT-qPCR; format: in vivo; details: 10 mg/kg p.o. daily for three weeks, HFD mice
Method: The compound 37 has been applied daily (10 mg/kg) via p.o. gavage for three weeks to wild-type C57BL/6J mice fed with high-fat diet (HFD) for 24 weeks. After 24 h from the last application, mice were sacrificed, and live samples collected on dry ice for total RNA isolation. RT-qPCR experiments have been performed with TaqMan probes and expression has been quantified using a reference gene (Gapdh) and delta-delta method. Data represents fold up or downregulation in mRNA expression for tested genes related to the expression in vehicle-treated control animals. * - denotes statistically significant (p<0.05) up-regulation in animals treated with the compound of EXAMPLE 37 in comparison to animals fed with HFD only (n ≥ 10 in each groups). ^f - statistically significant effect of HFD diet on a gene expression. […]
Expressions of NR target genes mRNAs in livers of mice or in 3D cultured (spheroids) primary human hepatocytes have been performed using TaqMan probes-based RT-qPCR after isolation of total RNA by Trizol® (ThermoFischer Scientific) reagent and reverse transcription synthesis of cDNA in Quant Studio cycler. […] Delta-delta method and Gapdh or TATA-box binding protein (TBP) housekeeping genes were used for relative quantification. Data are expressed as fold up-/down-regulation compared to vehicle-treated samples/mice.

human PPARα = target: T1, human PPARα (Homo sapiens, UniProt Q07869); assay: PPARα responsive luciferase reporter gene assay (pGAL4-PPARα / pGL5-UAS 9x) in HepG2 cells; format: cell-based; details: relative activation to fenofibrate 10 µM (100%), HepG2, 24 h, negative value indicates inverse agonism
T1 construct: DNA constructs encoding human LBD domains of human PPARα, PPARγ, of LXRα (pGAL4-PPARα, pGAL4-PPARγ, pGAL4-LXRα); expressed in transfected cells; host or cells: HepG2
T1 sequence (Q07869 239-466 limits assumed): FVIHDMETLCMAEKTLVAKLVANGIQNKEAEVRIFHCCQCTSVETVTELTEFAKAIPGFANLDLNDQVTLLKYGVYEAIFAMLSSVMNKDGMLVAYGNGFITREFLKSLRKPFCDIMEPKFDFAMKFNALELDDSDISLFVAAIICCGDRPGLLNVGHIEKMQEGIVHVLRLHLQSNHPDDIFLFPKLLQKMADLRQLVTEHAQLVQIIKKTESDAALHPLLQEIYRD
Source text: Bezafibrate, GW7647 and WY14643 are known PPARα ligands. […] GW3965 is known high-affinity LXRα ligand. […]
In HepG2 cells, luciferase gene reporter assays have been performed with the transiently transfected reporter gene luciferase construct with the UAS yeast binding site interacting with GAL4 protein (pGL5-UAS 9x, Promega). DNA constructs encoding human LBD domains of human PPARα, PPARγ, of LXRα (pGAL4-PPARα, pGAL4-PPARγ, pGAL4-LXRα) have been cotransfected with the reporter construct. For FXR, FXRE-luc construct with FXR response elements upstream of Firefly luciferase has been used together with an expression construct for human FXR for HepG2 cells transfection. HepG2 cells were then treated with compounds of the invention for 24 h.

human PPARγ = target: T2, human PPARγ (Homo sapiens, UniProt P37231); assay: PPARγ luciferase reporter gene assay (pGAL4-PPARγ / pGL5-UAS 9x) in HepG2 cells; format: cell-based; details: HepG2, 24 h
T2 construct: DNA constructs encoding human LBD domains of human PPARα, PPARγ, of LXRα (pGAL4-PPARα, pGAL4-PPARγ, pGAL4-LXRα); expressed in transfected cells; host or cells: HepG2
T2 sequence (P37231 238-503 limits assumed): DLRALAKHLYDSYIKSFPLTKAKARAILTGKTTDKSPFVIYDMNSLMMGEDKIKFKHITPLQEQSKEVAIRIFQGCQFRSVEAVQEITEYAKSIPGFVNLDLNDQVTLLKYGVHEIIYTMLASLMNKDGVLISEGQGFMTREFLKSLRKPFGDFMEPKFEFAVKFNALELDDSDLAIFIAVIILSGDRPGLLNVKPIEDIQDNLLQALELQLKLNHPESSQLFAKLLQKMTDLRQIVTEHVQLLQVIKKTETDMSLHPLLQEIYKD

Structure (SMILES): C[C@@H](Oc1ccc(Oc2ccc3c(Cl)cccc3n2)cc1)C(=O)O [compound 37, (R)-2-(4-((5-Chloroquinolin-2-yl)oxy)phenoxy)propanoic acid]
- Cyp7a1 expression in the mouse liver (C57BL/6J mice): down-regulates
- Fasn gene expression in the mouse liver (C57BL/6J mice): down-regulate
- Pck1 gene expression in the mouse liver (C57BL/6J mice): down-regulate
- cholesterol efflux transporters Abcg5/8 expression in the mouse liver (C57BL/6J mice): down-regulates
- key protein involved in fatty acid (beta) oxidation, mRNA expression in the mouse liver (C57BL/6J mice): up-regulate
- key genes of gluconeogenesis [1]: down-regulated
- key genes involved in fatty acid (beta) oxidation (Ucp2, Hadha and Hadha) in mouse livers ([1]; vs HFD only): up-regulates
- Emax at 10 µM (human PPARα): 8%
- Emax at 10 µM (human PPARγ): 1%
